US7033999B2, “Nitrosated and nitrosylated heme proteins” (Brigham and Women's Hospital, priority 1991, dated 2006)
pIC50: −log10 of the molar value.

Key:
[1] = test system: endothelium-denuded rabbit aortic strips; assay: Vessel relaxation bioassay; type: cell-based
Procedure: New Zealand White female rabbits weighing 3–4 kg were anesthetized with 30 mg/kg IV sodium pentobarbital. Descending thoracic aortae were isolated and placed immediately in a cold physiologic salt solution (Kreb's) (mM): NaCl, 118; CKl, 4.7; CaCl2, 2.5; MgSO4, 1.2; KH2PO4, 1.2; NaHCO3, 12.5; and D-glucose, 11.0. The vessels were cleaned of adherent connective tissue, and the endothelium removed by gentle rubbing with a cotton tipped applicator inserted into the lumen, after which the vessel was cut into 5 mm rings. The rings were mounted on stirrups and connected to transducers (model FT03C Grass Instruments, Quincy, Mass.) by which changes in isometric tension were recorded.
Samples were added to a standard bioassay in which vessel rings were suspended in glass chambers containing seven mil of oxygenated Kreb's buffer, in a standard bioassay (Cook et al., Am. J. Physiol. 28:H804 (1989), herein incorporated by reference). Sustained contractions, to 2 gm tension, were induced with 1 μM epinephrine, after which the effects of t-PA and S—NO-t-PA were tested. In certain experiments the guanylate cyclase inhibitor, methylene blue, was preincubated with vessel rings for 15 minutes prior to initiation of contractions.
The vasodilatory actions of S-nitroso-BSA were examined in a standard bioassay containing endothelium-denuded rabbit aortic strips in Kreb's buffer, pH 7.5, at 37°, as described in Example 6.
In vessel experiments, relaxations to S—NO-BSA are expressed as-percent of tone induced by 1.0 μM norepinephrine.

[2] = target: hemoglobin (Bos taurus, UniProt P01966+P02070); details: for reaction at the redox metal (iron-binding site) of hemoglobin: UV spectrum, SNOAC over 15 minutes
hemoglobin, sequence (P01966 2-142): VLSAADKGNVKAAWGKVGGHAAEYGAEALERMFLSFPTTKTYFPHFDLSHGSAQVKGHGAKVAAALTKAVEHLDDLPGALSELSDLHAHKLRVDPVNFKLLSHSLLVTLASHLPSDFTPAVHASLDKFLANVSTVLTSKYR
hemoglobin, sequence (P02070 whole entry): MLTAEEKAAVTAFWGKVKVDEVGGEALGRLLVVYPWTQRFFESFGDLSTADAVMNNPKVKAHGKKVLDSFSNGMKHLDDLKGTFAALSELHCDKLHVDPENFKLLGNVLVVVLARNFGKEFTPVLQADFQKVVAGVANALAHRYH

[3] = test system: gel-filtered platelets; assay: Platelet aggregation (nephelometric aggregometry); type: cell-based, human
Procedure: Venous blood, anticoagulated with 1-mM trisodium citrate, was obtained from volunteers who had not consumed acetylsalicylic acid for at least ten days. Platelet-rich plasma (PRP) was prepared by centrifugation at 150 g for ten minutes at 25° C. Platelet counts were determined with a Coulter counter (model ZM; Coulter Electronics, Hialeah, Fla.).
Platelets were gel-filtered on a 4× 10 cm column of Sepharose 2B in Tyrode's Hepes buffer as described previously (Hawiger et al., Nature 2831:195–198 (1980), herein incorporated by reference). Platelets were typically suspended at a concentration of 1.5×10^8/ml and were used within 30 minutes of preparation. Platelet aggregation was monitored using a standard nephelometric technique (Born, et al., J. Physiol. 168:178–195 (1963), herein incorporated by reference), in which 0.3-ml aliquots of gel-filtered platelets were incubated at 37° C. and stirred at 1000 rpm in a PAP-4 aggregometer (Biodata, Hatboro, Pa.). Gel-filtered platelets were preincubated with t-PA or S—NO-t-PA for up to 45 minutes and aggregations induced with 5 μM ADP or 0.025 U/ml thrombin.
Aggregations were quantified by measuring the maximal rate or extent of light transmittance and expressed as a normalized value relative to control aggregations.
The effect of S-nitroso-BSA on platelet aggregation was studied, using a gel-filtered platelet preparation, as previously described (Hawiger et al., Nature 2831:195 (1980)) and suspended at 150,000 platelets/ul in HEPES buffer, pH 7.35. S—NO-BSA was incubated with platelets for ten minutes at 37° C. in a PAP-4 aggregometer (BioData, Hatboro, Pa.), after which aggregations were induced with 5 μM ADP. Aggregations were quantified by measuring the extent of change of light transmittance and expressed as a normalized value relative to control aggregations.

[4] = test system: gel-filtered platelets; assay: Platelet aggregation (nephelometric aggregometry); type: cell-based, human; remark: listed apart in the source
[5] = test system: trachea rings; assay: Airway smooth muscle relaxation, trachea rings; type: cell-based, guinea pig
Description: (§1) Male Hartley guinea pigs (500–600 g) were anesthetized by inhalation of enflurane to achieve a surgical plane of anesthesia. The trachea were excised and placed in Kreb's-Hanseleit buffer (mM); NaCl 118, KCl 5.4, NaH2PO4 1.01, glucose 11.1, NaHCO3 25.0, MgSO4 0.69, CaCl 2.32, pH 7.4. The airways were then dissected free from surrounding fat and connective tissue and cut into rings 2–4 mm in diameter. The trachea rings were placed in sterile Medium 199 containing 1% antibiotic/antimycotic mixture in an atmosphere of 5% CO2, […], 55% N2 and kept for up to 48 hours in tissue culture. The experiments were also performed on human airways isolated by the same method.
(§2) Trachea rings were mounted on stirrups and connected to transducers (model FTO3C Grass), by which changes in isometric tension were measured. Rings were then suspended in 10 cc of oxygenated (95% O2, 5% CO2) buffer. Airway rings were equilibrated for 60 minutes under a load of 1 gm and then primed twice by exposure to 100 μM methacholine. The rings were contracted with various agonists at concentrations determined to generate 50% (±16% S.D.) of maximum tone, after which the effect of S—NO-BSA was assessed. In selected experiments, relaxation responses were determined in the presence of hemoglobin, or after rings had been preexposed to methylene blue for 30 minutes.

[6] = Canine model of subtotal coronary artery occlusion; type: in vivo, dog
Description: (§3) These extremely potent, but reversible anti-platelet properties in vivo are unmatched by classic nitrates. […] As shown in FIGS. 12–14, the constellation of anti-platelet effect, long duration of action, and increased coronary blood flow, is unmatched by other nitroso-compounds. Thus, S-nitroso-proteins have very unique hemodynamic and bioactive profiles.

[7] = Infusion into anesthetized dogs (blood pressure, coronary flow); type: in vivo, dog
Description: as §3

[8] = test system: RFL-6 lung fibroblasts containing a soluble guanylate cyclase; assay: Cyclic GMP in cultured RFL-6 lung fibroblasts; type: cell-based
Procedure: Consonant with the mechanism of other nitro(so)-vasodilators (Ignarro, L. J. Circ. Res. 65:1 (1989)), relaxations were abolished by methylene blue, an inhibitor of guanylate cyclase (FIG. 11a). This mechanism was confirmed by showing that S-nitroso-BSA (18 μM) induces 3.5-fold increases (n=2) in cyclic GMP over basal levels relative to BSA alone in cultured RFL-6 lung fibroblasts containing a soluble guanylate cyclase exquisitely sensitive to NO (Forstermann et al., Mol. Pharmacol. 38:7 (1990)). Stimulation of guanylate cyclase by S-nitroso-BSA was attenuated by methylene blue.

[9] = Stability of S-nitroso-albumin in the presence of oxygen and redox metals; type: physicochemical; details: Cu^+, Fe^2+, or Cu^2+ (50 μM) or defuroxamine or EDTA (10 μM)
Procedure: The stability of S-nitroso-albumin in the presence of oxygen and redox metals was assessed.
In addition, S-nitroso-protein stability was assessed in the presence of various redox metals or chelating agents.

[10] = test system: human airways; assay: Bronchodilatory effect in human airways contracted with methacholine; type: cell-based
Description: as §1, §2
(§4) The effect of guanylate cyclase inhibitors upon S-nitroso-protein-induced airway relaxation and cGMP increase was assessed, using the previously described bioassay and cyclic nucleotide assay procedures. The bronchodilatory effect of S-nitroso-albumin was examined in human airways (5–12 mm outer diameter).

[11] = test system: human airways; assay: Airway cGMP levels; type: cell-based; details: 100 μM
Procedure: as §4

[12] = Hemoglobin-oxygen association curve; details: S-nitrosylation of hemoglobin
Description: Thus, the reaction between S-nitrosothiols and hemoglobin not only eliminates the inhibition of oxygen binding which occurs from the reaction with uncharged NO and generation of methemoglobin, but it actually increases oxygen binding.

[13] = clinically used comparator; cited from earlier work
[14] = acidified NaNO2, NO gas or EDRF from endothelial cells

For [N]=O [NO, nitric oxide, reference compound], the “% Relaxation” value ([1]; 150 nM, contraction with 1 μM epinephrine, mean ±S.D., n=4) was 1.0 ± 1.7%, the “reaction at the redox metal (iron-binding site) of hemoglobin” value [2] was “reacted instantaneously” and the “normalized extent of aggregation” value ([3]; NO generated from NaNO2 (150 nM), n=5) was 0.98±0.11. For the same compound, the “effect on the extent of platelet aggregation” value ([3]; NOx generated from NaNO2) was “no significant effect”.
With O=N[O-].[Na+] [NaNO2, Sodium nitrite, reference compound] the “effect on vessel tone (sentence negated: neither ... had)” value ([1]; concentrations up to 15 μM) was “any significant effect” and the “effect on platelet aggregation (sentence negated: neither ... had)” value ([4]; concentrations up to 15 μM) was “any significant effect”.
With CC(=O)N[C@@H](CSN=O)C(=O)O [SNOAC, S-nitroso-N-acetylcysteine] the “reaction at the redox metal (iron-binding site) of hemoglobin” value [2] was “no reaction”.
In the case of “NO-BSA: BSA loaded with NO at a ratio of 20:1 in 0.5 N HCl (Example 14)”, the “vessel relaxation with increasing concentrations of NO loaded” value ([1]; BSA loaded with NO as in Example 14) was “increase in vessel relaxation”.
In the case of “S-nitroso-BSA: S-nitrosylated bovine serum albumin”, the “relaxation of airway smooth muscle” value ([5]; 0.01 μM) was 50%, the “relaxation of airway smooth muscle” value ([5]; 10 μM) was “over 75%” and the “vasorelaxant potency by method of synthesis” value [1, 14] was “essentially equipotent”. The “character of relaxation response” value ([1]; compared with EDRF, NO, low molecular weight S-nitrosothiols) was “less rapid, but much more persistent, relaxation response”, the “platelet inhibitory effect in platelet-rich plasma and whole blood” value ([4]; 1.4 μM, impedance aggregometry for whole blood) was “confirmed” and the “platelet inhibitory potency by method of synthesis” value [3, 14] was “essentially equipotent”. For the same compound, the bleeding times [6] was “significantly prolonged”, the “platelet-dependent cyclic thrombus formation” value [6] was “inhibited” and the blood pressure [7] was “prolonged decreases in blood pressure”. For the same compound, the coronary flow [7] was “increased coronary flow”, the “increases in cyclic GMP over basal levels relative to BSA alone” value ([8]; 18 μM, n=2) was 3.5 fold and the “stimulation of guanylate cyclase in presence of methylene blue” value ([8]; methylene blue) was “attenuated”.
In the case of “S-nitroso-albumin: S-nitrosylated albumin used in Examples 17 and 18; likely the same as S-nitroso-BSA”, the “decomposition in presence of redox metals or chelating agents” value [9] was “resistant to decomposition”, the “effect of hemoglobin on airway relaxation” value ([10]; hemoglobin (100 μM)) was “little effect” and the “airway relaxation in presence of methylene blue or LY83583” value ([10]; methylene blue (10^−4) or LY83583 (5×10^−5)) was “not significantly inhibited”. The pIC50 ([10]; rings contracted with methacholine (7 μM), read-out: IC50 of airway relaxation) was 4.66 and the “airway cGMP levels” value [11] was “increases over control”.
With “S-nitroso-hemoglobin: derived from the nitrosylation of hemoglobin” the formation of methemoglobin [2] was “does not result in the formation of methemoglobin” and the hemoglobin-oxygen association curve [12] was “leftward shift”.
In the case of nitroprusside, the “effect on coronary flow” value [13] is given as “deleterious effects on coronary flow”.
